Laboratory results as given in ChEMBL document CHEMBL3885861, “Open TG-GATES”.

Organism: Rattus norvegicus
Test: Open TG-GATES - Regimen: Single
Type: toxicity, organism-based, Sprague-Dawley
Design: regimen Single, gender Male, age 6 weeks
Conditions: in vivo, po, route gavage; for APTT / Bas / Eos / Fbg / Hb / Ht / Lym / MCHC / MCV / Mono / Neu / PT / Plat / RBC / Ret / WBC: tissue Blood; for KIDNEY_L / KIDNEY_R / KIDNEY_TOTAL: tissue Kidney; for LIVER: tissue Liver; for ALP / ALT / AST / BUN / CRE / Ca / Cl / DBIL / GLC / IP / K / LDH / Na / PL / RALB / TBIL / TC / TG / TP / gamma-GTP: tissue Plasma
[1] = 50 mg/kg, 3 h, dose level Middle
[2] = 50 mg/kg, 6 h, dose level Middle
[3] = 50 mg/kg, 9 h, dose level Middle
[4] = 50 mg/kg, 24 h, dose level Middle
[5] = 150 mg/kg, 3 h, dose level High
[6] = 150 mg/kg, 6 h, dose level High
[7] = 150 mg/kg, 9 h, dose level High
[8] = 150 mg/kg, 24 h, dose level High

## C1CCC(C(CC2CCCCN2)C2CCCCC2)CC1 (stereo not drawn) [PERHEXILINE]
[1]
  TERMINAL_BW: 207.9 g
  APTT: 22 s
  Bas: 0%
  Eos: 0.8%
  Fbg: 319.8 mg/dL
  Hb: 13.6 g/dL
  Ht: 40.9%
  Lym: 77.6%
  MCHC: 33.3%
  MCV: 62.5 fL
  Mono: 1.8%
  Neu: 19%
  PT: 15.7 s
  Plat: 132.9 x10_4/uL
  RBC: 656 x10_4/ul
  Ret: 6.5%
  WBC: 52.6 x10_2/uL
  KIDNEY_L: 1 g
  KIDNEY_R: 1 g
  KIDNEY_TOTAL: 2 g
  LIVER: 9.4 g
  ALP: 1767.8 IU/L
  ALT: 47.4 IU/L
  AST: 72 IU/L
  BUN: 10.8 mg/dL
  CRE: 0.1 mg/dL
  Ca: 10.8 mg/dL
  Cl: 105 meq/L
  DBIL: 0.004 mg/dL
  GLC: 164.6 mg/dL
  IP: 9.2 mg/dL
  K: 4 meq/L
  LDH: 190.6 IU/L
  Na: 140.4 meq/L
  PL: 140.2 mg/dL
  RALB: 3.1 g/dL
  TBIL: 0.012 mg/dL
  TC: 73 mg/dL
  TG: 65.8 mg/dL
  TP: 5.7 g/dL
  gamma-GTP: 0.8 IU/L
[2]
  TERMINAL_BW: 216.9 g
  APTT: 21.5 s
  Bas: 0%
  Eos: 1%
  Fbg: 325.6 mg/dL
  Hb: 13 g/dL
  Ht: 38.7%
  Lym: 72.8%
  MCHC: 33.5%
  MCV: 62.6 fL
  Mono: 2.8%
  Neu: 22.2%
  PT: 15.7 s
  Plat: 126.8 x10_4/uL
  RBC: 619.8 x10_4/ul
  Ret: 7.7%
  WBC: 94.8 x10_2/uL
  KIDNEY_L: 1.1 g
  KIDNEY_R: 1 g
  KIDNEY_TOTAL: 2.1 g
  LIVER: 9.5 g
  ALP: 1607.2 IU/L
  ALT: 40.4 IU/L
  AST: 69.8 IU/L
  BUN: 11.4 mg/dL
  CRE: 0.2 mg/dL
  Ca: 10.9 mg/dL
  Cl: 105.2 meq/L
  DBIL: 0.006 mg/dL
  GLC: 161 mg/dL
  IP: 10.1 mg/dL
  K: 4.5 meq/L
  LDH: 182.6 IU/L
  Na: 139 meq/L
  PL: 137.8 mg/dL
  RALB: 3 g/dL
  TBIL: 0.014 mg/dL
  TC: 69.2 mg/dL
  TG: 81.6 mg/dL
  TP: 5.6 g/dL
  gamma-GTP: 1 IU/L
[3]
  TERMINAL_BW: 203.5 g
  APTT: 21 s
  Bas: 0%
  Eos: 0.6%
  Fbg: 325.2 mg/dL
  Hb: 13.1 g/dL
  Ht: 39.1%
  Lym: 76.2%
  MCHC: 33.6%
  MCV: 63.4 fL
  Mono: 1.8%
  Neu: 20.2%
  PT: 15.5 s
  Plat: 130 x10_4/uL
  RBC: 617.6 x10_4/ul
  Ret: 7.4%
  WBC: 69.7 x10_2/uL
  KIDNEY_L: 1 g
  KIDNEY_R: 1 g
  KIDNEY_TOTAL: 1.9 g
  LIVER: 8.5 g
  ALP: 1598.6 IU/L
  ALT: 40.2 IU/L
  AST: 69 IU/L
  BUN: 11 mg/dL
  CRE: 0.1 mg/dL
  Ca: 10.8 mg/dL
  Cl: 105.4 meq/L
  DBIL: 0.002 mg/dL
  GLC: 169.8 mg/dL
  IP: 9.9 mg/dL
  K: 4.1 meq/L
  LDH: 238.2 IU/L
  Na: 139.2 meq/L
  PL: 137 mg/dL
  RALB: 3 g/dL
  TBIL: 0.018 mg/dL
  TC: 78.6 mg/dL
  TG: 39.4 mg/dL
  TP: 5.6 g/dL
  gamma-GTP: 1 IU/L
[4]
  TERMINAL_BW: 220 g
  APTT: 20.4 s
  Bas: 0%
  Eos: 1%
  Fbg: 309.4 mg/dL
  Hb: 13.5 g/dL
  Ht: 40.3%
  Lym: 82%
  MCHC: 33.4%
  MCV: 63.4 fL
  Mono: 2%
  Neu: 14%
  PT: 15.6 s
  Plat: 116.9 x10_4/uL
  RBC: 635.4 x10_4/ul
  Ret: 6.5%
  WBC: 92.8 x10_2/uL
  KIDNEY_L: 0.9 g
  KIDNEY_R: 1 g
  KIDNEY_TOTAL: 1.9 g
  LIVER: 10.2 g
  ALP: 1673.6 IU/L
  ALT: 43.2 IU/L
  AST: 72.8 IU/L
  BUN: 15.4 mg/dL
  CRE: 0.2 mg/dL
  Ca: 10.7 mg/dL
  Cl: 108 meq/L
  DBIL: 0 mg/dL
  GLC: 179.8 mg/dL
  IP: 7.4 mg/dL
  K: 4.4 meq/L
  LDH: 240.6 IU/L
  Na: 143.4 meq/L
  PL: 146.4 mg/dL
  RALB: 3.2 g/dL
  TBIL: 0.01 mg/dL
  TC: 72 mg/dL
  TG: 117.2 mg/dL
  TP: 5.6 g/dL
  gamma-GTP: 1 IU/L
[5]
  TERMINAL_BW: 215.1 g
  APTT: 21.8 s
  Bas: 0%
  Eos: 0.8%
  Fbg: 336.6 mg/dL
  Hb: 13.3 g/dL
  Ht: 40.3%
  Lym: 71.2%
  MCHC: 33.1%
  MCV: 65.5 fL
  Mono: 1.6%
  Neu: 24.8%
  PT: 16 s
  Plat: 129.8 x10_4/uL
  RBC: 616 x10_4/ul
  Ret: 7.7%
  WBC: 64 x10_2/uL
  KIDNEY_L: 0.9 g
  KIDNEY_R: 1 g
  KIDNEY_TOTAL: 1.9 g
  LIVER: 9.3 g
  ALP: 1714.6 IU/L
  ALT: 57.2 IU/L
  AST: 80 IU/L
  BUN: 11 mg/dL
  CRE: 0.1 mg/dL
  Ca: 10.6 mg/dL
  Cl: 104.8 meq/L
  DBIL: 0.002 mg/dL
  GLC: 173.6 mg/dL
  IP: 9.4 mg/dL
  K: 3.8 meq/L
  LDH: 215.2 IU/L
  Na: 140.2 meq/L
  PL: 133.2 mg/dL
  RALB: 3.2 g/dL
  TBIL: 0.016 mg/dL
  TC: 73.2 mg/dL
  TG: 46.8 mg/dL
  TP: 5.8 g/dL
  gamma-GTP: 0.8 IU/L
[6]
  TERMINAL_BW: 213.5 g
  APTT: 22.8 s
  Bas: 0%
  Eos: 1%
  Fbg: 336.8 mg/dL
  Hb: 13.1 g/dL
  Ht: 39.1%
  Lym: 68.8%
  MCHC: 33.5%
  MCV: 62.8 fL
  Mono: 1.8%
  Neu: 27.2%
  PT: 15.2 s
  Plat: 142.9 x10_4/uL
  RBC: 622.4 x10_4/ul
  Ret: 7.9%
  WBC: 59.6 x10_2/uL
  KIDNEY_L: 1 g
  KIDNEY_R: 1 g
  KIDNEY_TOTAL: 1.9 g
  LIVER: 9.1 g
  ALP: 1591 IU/L
  ALT: 51.8 IU/L
  AST: 75.8 IU/L
  BUN: 10.6 mg/dL
  CRE: 0.1 mg/dL
  Ca: 10.6 mg/dL
  Cl: 106 meq/L
  DBIL: 0.002 mg/dL
  GLC: 172.4 mg/dL
  IP: 9.2 mg/dL
  K: 4.2 meq/L
  LDH: 238.8 IU/L
  Na: 140.2 meq/L
  PL: 148.6 mg/dL
  RALB: 3.2 g/dL
  TBIL: 0.018 mg/dL
  TC: 75 mg/dL
  TG: 82 mg/dL
  TP: 5.7 g/dL
  gamma-GTP: 1 IU/L
[7]
  TERMINAL_BW: 220.6 g
  APTT: 21.1 s
  Bas: 0%
  Eos: 1%
  Fbg: 326.4 mg/dL
  Hb: 13.2 g/dL
  Ht: 39.7%
  Lym: 66.8%
  MCHC: 33.2%
  MCV: 63.9 fL
  Mono: 1.6%
  Neu: 30%
  PT: 15.5 s
  Plat: 128.9 x10_4/uL
  RBC: 622.8 x10_4/ul
  Ret: 7.7%
  WBC: 64.2 x10_2/uL
  KIDNEY_L: 1.1 g
  KIDNEY_R: 1.1 g
  KIDNEY_TOTAL: 2.1 g
  LIVER: 9.7 g
  ALP: 1539.6 IU/L
  ALT: 39 IU/L
  AST: 66.6 IU/L
  BUN: 11.4 mg/dL
  CRE: 0.1 mg/dL
  Ca: 10.9 mg/dL
  Cl: 105.2 meq/L
  DBIL: 0.004 mg/dL
  GLC: 171.2 mg/dL
  IP: 9.6 mg/dL
  K: 4 meq/L
  LDH: 217.8 IU/L
  Na: 138.8 meq/L
  PL: 121 mg/dL
  RALB: 3 g/dL
  TBIL: 0.014 mg/dL
  TC: 62 mg/dL
  TG: 48.2 mg/dL
  TP: 5.6 g/dL
  gamma-GTP: 1 IU/L
[8]
  TERMINAL_BW: 208.6 g
  APTT: 21.2 s
  Bas: 0%
  Eos: 1%
  Fbg: 327.6 mg/dL
  Hb: 13.6 g/dL
  Ht: 40.4%
  Lym: 82%
  MCHC: 33.6%
  MCV: 62.7 fL
  Mono: 1.2%
  Neu: 15.4%
  PT: 16.1 s
  Plat: 132.8 x10_4/uL
  RBC: 645.6 x10_4/ul
  Ret: 6%
  WBC: 65.9 x10_2/uL
  KIDNEY_L: 0.9 g
  KIDNEY_R: 1 g
  KIDNEY_TOTAL: 1.9 g
  LIVER: 9.4 g
  ALP: 1840.2 IU/L
  ALT: 50 IU/L
  AST: 71.6 IU/L
  BUN: 15.4 mg/dL
  CRE: 0.1 mg/dL
  Ca: 10.7 mg/dL
  Cl: 106.8 meq/L
  DBIL: 0 mg/dL
  GLC: 170.2 mg/dL
  IP: 7.9 mg/dL
  K: 4.2 meq/L
  LDH: 256.2 IU/L
  Na: 141.8 meq/L
  PL: 149 mg/dL
  RALB: 3.2 g/dL
  TBIL: 0.012 mg/dL
  TC: 79.6 mg/dL
  TG: 78 mg/dL
  TP: 5.8 g/dL
  gamma-GTP: 1 IU/L
